Read-outs that look alike come from different tables or passages of the source.
Columns and labels:
Type in all cases: cell-based
[1] = test system: H2122 NSCLC cell line; assay: AlamarBlue proliferation assay, H2122; details: Homo sapiens
Description: (§1) Cytotoxicity is measured using fluorescence spectrophotometry.
(§2) TKI sensitivity was determined in NSCLC cell lines. Vandetanib and sunitinib sensitivity was measured in seven NSCLC cell lines. Erlotinib sensitivity was measured in nine NSCLC cell lines. An AlamarBlue proliferation assay at 72 hours was used to measure TKI sensitivity. GraphPad Prism 4.01 was used to determine IC50 values. Expression of seven miRNAs was measured by qRT-PCR. qRT-PCR data were normalized to the reference RNU6 and fold changes were computed against the selected sensitive cell line for each drug. A two-sided z-test was used to compute the p-values for the fold changes. A score was calculated for each miRNA/drug combination to see whether a miRNA can determine resistance across cell lines. Fold changes were first ternarized and assigned a value of +1, −1, or 0. Elevated miRNA expression relative to control (fold change>1 AND p-value<0.05) was assigned a value of +1. Reduced miRNA expression relative to control (fold change<1 AND p-value<0.05) was assigned a value of −1. Any non-significant fold change (p-value>0.05) was assigned a value of 0. These values were then multiplied by a value of +1 or −1 as assigned by the resistance characteristics of the cell line: Resistant cell lines were assigned a value=+1. Sensitive cell lines were assigned a value=−1. The final score was computed by the sum of the points for the cells lines divided by the number of cell lines (the reference cell line was not used in computing the scores).

[2] = test system: H520 NSCLC cell line; assay: AlamarBlue proliferation assay, H520; details: Homo sapiens
Description: as §1, §2

[3] = test system: A549 NSCLC cell line; assay: AlamarBlue proliferation assay, A549; details: Homo sapiens
Description: as §1, §2

[4] = test system: H358 NSCLC cell line; assay: AlamarBlue proliferation assay, H358; details: Homo sapiens
Description: as §1, §2

[5] = test system: NSCLC cell lines classified as resistant; assay: AlamarBlue proliferation assay, NSCLC lines classified as resistant; details: read-out: IC50s of the remaining lines classified as resistant
Description: (§4) Cells in the log phase of expansion are harvested and counted. The cells are then adjusted to a density of 1×10^4 cells/ml, though the optimum cell density may vary between cell types. […] The AlamarBlue® reagent is mixed, and then aseptically added to the cells in an amount around 10% of the well volume. Cells are incubated in the presence of the reagent from 4-8 hours. Cytotoxicity is measured using fluorescence spectrophotometry. Absorbance is measured at 570 nm and 600 nm blanked in a plate containing medium only. To calculate the percent difference in reduction between treated and control cells in Percentage difference between treated and control cells
(§5) TKI sensitivity was determined in NSCLC cell lines. […] An AlamarBlue proliferation assay at 72 hours was used to measure TKI sensitivity. GraphPad Prism 4.01 was used to determine IC50 values.

[6] = test system: HCC4006 NSCLC cell line; assay: AlamarBlue proliferation assay, HCC4006; details: Homo sapiens, 72 hours
Description: as §1
as §2, with “The final score was computed by the sum of the points for the cells lines divided by the number of cell lines (the reference cell line was not used in computing the scores).” left out

[7] = test system: H1703 NSCLC cell line; assay: AlamarBlue proliferation assay, H1703; details: Homo sapiens
Description: as §1, §2

[8] = test system: H2073 NSCLC cell line; assay: AlamarBlue proliferation assay, H2073; details: NCI-H2073, 72 hours
Description: as §1
as §2, with “The final score was computed by the sum of the points for the cells lines divided by the number of cell lines (the reference cell line was not used in computing the scores).” left out

[9] = test system: H460 NSCLC cell line; assay: AlamarBlue proliferation assay, H460; details: Homo sapiens
Description: as §1, §2

[10] = test system: H1703 Sunitinib resistant line A (H1703 SRa); assay: Alamar blue assay, H1703 SRa; details: Homo sapiens, NCI-H1703, read-out: Sunitinib IC50(μM), Example 3, mean of three experiments
Description: (§3) GraphPad Prism 4.01 was used to calculate IC50 values. […] GenoSensor GenoExplorer™ microRNA Expression System (Sanger miRNA Registry version 14 containing probes for 904 mature miRNAs and 450 pre-miRNAs) was used to screen miR expression. Differences in miRs expression between the parent and resistant cells were identified using at test with Benjamini-Hochberg correction and validated by qPCR. A score was calculated for each miRNA to determine whether a miRNA can predict SR.

[11] = test system: H1703 Sunitinib resistant line B (H1703 SRb); assay: Alamar blue assay, H1703 SRb; details: Homo sapiens, NCI-H1703, read-out: Sunitinib IC50(μM), Example 3, mean of three experiments
Description: as §3

[12] = test system: HCC827 NSCLC cell line; assay: AlamarBlue proliferation assay, HCC827; details: Homo sapiens, 72 hours
Description: One method of measuring IC50 by AlamarBlue proliferation that may be used in determining an IC50 is as follows:
as §4, §5

[13] = NCI-H2122, H2122, AlamarBlue proliferation, 72 hours, read-out: IC50
[14] = NCI-H520, H520, AlamarBlue proliferation, 72 hours, read-out: IC50
[15] = A549, AlamarBlue proliferation, 72 hours, read-out: IC50
[16] = NCI-H358, H358, AlamarBlue proliferation, 72 hours, read-out: IC50
[17] = NCI-H1703, H1703, AlamarBlue proliferation, 72 hours, read-out: IC50
[18] = NCI-H460, H460, AlamarBlue proliferation, 72 hours, read-out: IC50
[19] = range across resistant NSCLC lines, 72 hours

IC50 [1, 13]	IC50 [2, 14]	IC50 [3, 15]	IC50 [4, 16]	IC50 [7, 17]	IC50 [9, 18]	IC50 ([1]; NCI-H2122, read-out: Sunitinib IC50(μM), H2122, Example 3, mean of three experiments)	IC50 ([2]; NCI-H520, read-out: Sunitinib IC50(μM), H520, Example 3, mean of three experiments)	IC50 ([3]; read-out: Sunitinib IC50(μM), A549, Example 3, mean of three experiments)	IC50 ([4]; NCI-H358, read-out: Sunitinib IC50(μM), H358, Example 3, mean of three experiments)	IC50 ([7]; NCI-H1703, read-out: Sunitinib IC50(μM), H1703 control, Example 3, mean of three experiments)	IC50 ([9]; NCI-H460, read-out: Sunitinib IC50(μM), H460, Example 3, mean of three experiments)	IC50 [10]	IC50 [11]	IC50 [12]	Compound	IC50 ([5]; 72 h)	IC50 [6]	IC50 [8]	IC50 [5, 19]
4.8 µM	8.2 µM	5.5 µM	14.2 µM	0.51 µM	5.6 µM	4.8 µM	8.2 µM	5.5 µM	14.2 µM	0.13 µM	5.6 µM	7.6 µM	4.37 µM		CCN(CC)CCNC(=O)c1c(C)[nH]c(/C=C2\C(=O)Nc3ccc(F)cc32)c1C [Sunitinib, N-[2-(diethylamino)ethyl]-5-[(Z)-(5-fluoro-1,2-dihydro-2-oxo-3H-indol-3-ylidine)methyl]-2,4-dimethyl-1H-pyrrole-3-carboxamide]				4.8 to 14.2 µM
5.9 µM	12.1 µM	9.7 µM	4.2 µM	2.1 µM	13.9 µM									0.55 µM	COc1cc2c(Nc3ccc(Br)cc3F)ncnc2cc1OCC1CCN(C)CC1 [Vandetanib]				2.1 to 13.9 µM

Compound	IC50 [1, 13]	IC50 [2, 14]	IC50 [3, 15]	IC50 [4, 16]	IC50 [7, 17]	IC50 [9, 18]	IC50 ([1]; NCI-H2122, read-out: Sunitinib IC50(μM), H2122, Example 3, mean of three experiments)	IC50 ([2]; NCI-H520, read-out: Sunitinib IC50(μM), H520, Example 3, mean of three experiments)	IC50 ([3]; read-out: Sunitinib IC50(μM), A549, Example 3, mean of three experiments)	IC50 ([4]; NCI-H358, read-out: Sunitinib IC50(μM), H358, Example 3, mean of three experiments)	IC50 ([7]; NCI-H1703, read-out: Sunitinib IC50(μM), H1703 control, Example 3, mean of three experiments)	IC50 ([9]; NCI-H460, read-out: Sunitinib IC50(μM), H460, Example 3, mean of three experiments)	IC50 [10]	IC50 [11]	IC50 [12]	IC50 ([5]; 72 h)	IC50 [6]	IC50 [8]	IC50 [5, 19]
C#Cc1cccc(Nc2ncnc3cc(OCCOC)c(OCCOC)cc23)c1 [Erlotinib, N-(3-ethynylphenyl)-6,7-bis(2-methoxyethoxy)quinazolin-4-amine]	12.3 µM	> 50 µM	> 50 µM	28.6 µM	> 50 µM	39.2 µM										≥ 9.7 µM	0.02 µM	9.7 µM	

Source: US20120095030A1, “METHODS AND KITS TO PREDICT THERAPEUTIC OUTCOME OF TYROSINE KINASE INHIBITORS” (THE TRANSLATIONAL GENOMICS RESEARCH INSTITUTE, priority 2009, published 2012)
